The values below are quoted from earlier work in US8871750B2, “Use of aromatase inhibitors for endometrial thinning in preparation for surgical procedures on the endometrial cavity and uterus” (Wayne State University, priority 2004, dated 2014).

For data set [1] the following is noted: postmenopausal breast cancer treatment.
Data set [2] deals with endometrium. As to conditions: small, randomized study.
The subject of data set [3] is endometrium. The settings on record: in vivo.

With `CCC1(c2ccc(N)cc2)CCC(=O)NC1=O` (centres unmarked) [aminoglutethimide], the “patients stopping treatment because of side effects (lethargy, rashes, nausea, fever)” value in data set [1] is on record as 8-15%.

`CC(=O)O[C@]1(C(C)=O)CC[C@H]2[C@@H]3C=C(Cl)C4=CC(=O)[C@@H]5C[C@@H]5[C@]4(C)[C@H]3CC[C@@]21C` [cyproterone acetate]: the “effect on endometrial thickness” value in data set [2] was “significant reduction”.

For `CC(=O)O[C@]1(C(C)=O)CC[C@H]2[C@@H]3C[C@H](C)C4=CC(=O)CC[C@]4(C)[C@H]3CC[C@@]21C` [medroxyprogesterone acetate], the “effect on endometrial thickness” value in data set [2] is “no effect”.

In the case of `CC#C[C@]1(O)CC[C@H]2[C@@H]3CCC4=CC(=O)CCC4=C3[C@@H](c3ccc(N(C)C)cc3)C[C@@]21C` [mifepristone], the “effect on endometrium and menstrual bleeding” value in data set [3] is “marked endometrial ECM breakdown and excessive menstrual bleeding”.

In the case of `C#C[C@]1(O)CC[C@H]2[C@@H]3CCC4=CC(=O)CC[C@@H]4[C@H]3CC[C@@]21C` [norethisterone], the “effect on endometrial thickness” value in data set [2] was “no effect”.
